Test results: ChEMBL document CHEMBL1201862, “PubChem BioAssay data set” (2004)
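Test compounds were applied to cells in 96-well plates for 48 hours at 5 doses. The concentration for 50% growth inhibition is given as GI50.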 Active and inactive are the calls of the source. Cut-off read from the data, not from the text of the source: active = GI50 up to about 1.1 µM and inactive = higher.

How the values were obtained:
Experiment in all cases: NCI tumour cell line growth inhibition, 48 h
786-0 = system: 786-0
A498 = system: A498
CAKI-1 = system: CAKI-1
COLO 205 = system: COLO 205
HCT-15 = system: HCT-15
HOP-62 = system: HOP-62
HT-29 = system: HT-29
IGROV-1 = system: IGROV-1
K562 = system: K562
MOLT-4 = system: MOLT-4
NCI-H226 = system: NCI-H226
OVCAR-5 = system: OVCAR-5
SF-539 = system: SF-539
SK-MEL-28 = system: SK-MEL-28
SK-MEL-2 = system: SK-MEL-2
SK-MEL-5 = system: SK-MEL-5
SK-OV-3 = system: SK-OV-3
SN12C = system: SN12C
UO-31 = system: UO-31

Compound	GI50 (786-0)	GI50 (A498)	GI50 (CAKI-1)	GI50 (COLO 205)	GI50 (HCT-15)	GI50 (HOP-62)	GI50 (HT-29)	GI50 (IGROV-1)	GI50 (K562)	GI50 (MOLT-4)	GI50 (NCI-H226)	GI50 (OVCAR-5)	GI50 (SF-539)	GI50 (SK-MEL-28)	GI50 (SK-MEL-2)	GI50 (SK-MEL-5)	GI50 (SK-OV-3)	GI50 (SN12C)	GI50 (UO-31)
CC(=O)N1CC2Nc3ccccc3C2CC1CO (centres undefined)	> 100 µM (inactive)	> 100 µM (inactive)	> 100 µM (inactive)	> 100 µM (inactive)	> 100 µM	> 100 µM (inactive)	> 100 µM (inactive)	> 100 µM (inactive)	> 100 µM (inactive)	> 100 µM (inactive)	> 100 µM (inactive)	> 100 µM (inactive)	> 100 µM (inactive)	> 100 µM (inactive)	> 100 µM (inactive)	> 100 µM (inactive)	> 100 µM (inactive)	> 100 µM (inactive)	> 100 µM (inactive)
NC(=O)c1cn(Cc2ccccc2)c(=O)n1Cc1ccccc1	> 100 µM (inactive)	> 100 µM (inactive)	> 100 µM (inactive)	> 100 µM (inactive)	> 100 µM	> 100 µM (inactive)	> 100 µM (inactive)	> 100 µM (inactive)	> 100 µM (inactive)	> 100 µM (inactive)	> 100 µM (inactive)	> 100 µM (inactive)	> 100 µM (inactive)	> 100 µM (inactive)	> 100 µM (inactive)	> 100 µM (inactive)	> 100 µM (inactive)	> 100 µM (inactive)	> 100 µM (inactive)
CCOC(=O)[C@]12C3C=CC(C3)C1C(=O)C1OC12 (some centres undefined)	> 100 µM (inactive)	> 100 µM (inactive)	> 100 µM (inactive)	> 100 µM (inactive)	> 100 µM	> 100 µM (inactive)	> 100 µM (inactive)	> 100 µM (inactive)	> 100 µM (inactive)	> 100 µM (inactive)	> 100 µM (inactive)	> 100 µM (inactive)	> 100 µM (inactive)	> 100 µM (inactive)	> 100 µM (inactive)	> 100 µM (inactive)	> 100 µM (inactive)	> 100 µM (inactive)	> 100 µM (inactive)
COc1cc([C@@H]2c3cc4c(cc3[C@@H](NCc3cccc(C#N)c3)C3COC(=O)[C@@H]32)OCO4)cc(OC)c1O (some centres undefined)	1.02 µM (active)	1.43 µM (inactive)	1 µM (active)	2.99 µM (inactive)	1.17 µM	0.439 µM (active)	1.48 µM (inactive)	1.03 µM (active)	1.83 µM (inactive)	0.0386 µM (active)	0.225 µM (active)	2.84 µM (inactive)	0.326 µM (active)	3.32 µM (inactive)	3.77 µM (inactive)	2.02 µM (inactive)	1.53 µM (inactive)	0.448 µM (active)	2.22 µM (inactive)
CC(C)N(C(=O)C12C3C4C1C1C2C3C41C(=O)N(C(C)C)C(C)C)C(C)C (centres undefined)	> 50 µM (inactive)	> 50 µM (inactive)	> 50 µM (inactive)	> 50 µM (inactive)	> 50 µM	> 50 µM (inactive)	> 50 µM (inactive)	> 50 µM (inactive)	> 50 µM (inactive)	> 50 µM (inactive)	> 50 µM (inactive)	> 50 µM (inactive)	> 50 µM (inactive)	> 50 µM (inactive)	> 50 µM (inactive)	> 50 µM (inactive)	> 50 µM (inactive)	> 50 µM (inactive)	> 50 µM (inactive)
CCOc1ccc2nc3cc(/N=N/c4ccc(N)nc4N)ccc3c(N)c2c1	1.46 µM (inactive)	8.89 µM (inactive)	36.4 µM (inactive)	1.86 µM (inactive)	37.8 µM	3.75 µM (inactive)	3.5 µM (inactive)	23.6 µM (inactive)	0.299 µM (active)	1.46 µM (inactive)	21.7 µM (inactive)	21.1 µM (inactive)	2.05 µM (inactive)	15.6 µM (inactive)	2.1 µM (inactive)	17.3 µM (inactive)	7 µM (inactive)	2.17 µM (inactive)	28.4 µM (inactive)
